Laboratory results: PubChem BioAssay AID1963447 (Molecular Pharmacology Branch, DTP, NCI, 2024)
Several values for one entry are separate records, joined by “and”; a condition that tells them apart may be missing. Equal values may be shown once.

Tested on: 885512-296-R-J2-PDC complex spheroid growth, % test/control
Experiment: Anticancer human tumor 885512-296-R-J2-PDC patient-derived breast carcinoma cell line growth inhibition [Asc]
Conditions: for viability, T/C: stronger effect = lower value
Protocol: Multicellular complex tumor spheroid response to apoptosis pathway targeting inhibitors Alrizomadlin, Pelcitoclax, and Dasminapant in combination with a variety of drugs and investigational agents in selected tumor cell lines
The MDM2 inhibitor alrizomadlin, the Bcl-2/Bcl-xL inhibitor pelcitoclax, and the IAPs inhibitor dasminapant were evaluated both individually and in combination with standard of care and investigational anticancer small molecules within a complex spheroid model of solid tumors. . Complex spheroids include a stromal component modeled by human endothelial cells (HUVEC) and fibroblasts modeled by human mesenchymal stem cells (MSCs). The concentration ranges selected for each drug and investigational agent were based upon clinically achievable concentrations if the clinical Cmax of the agent was known.
Compounds. The drugs and investigational agents: alrizomadlin (APG-115; NSC831270), pelcitoclax (APG-1252; NSC835773), dasminapant (APG-1387;NSC834197), TAK-243 (NSC785004), copanlisib (NSC809693), olaparib (NSC753686), talazoparib (NSC767125), cobimetinib (NSC 768068), eltanexor (KPT-8602, NSC 794443), abemaciclib (NSC 768073), sotorasib (NSC818433), adagrasib (NSC 831453), MRTX-1133 (NSC 836407), Iadademestat (ORY1001, NSC 806812), and RMC-4630 (NSC839698), were obtained from the NCI Developmental Therapeutics Program Chemical Repository. The FDA-approved anticancer drug set is available from the Developmental Therapeutics Program at https://dtp.cancer.gov/organization/dscb/obtaining/available plates.htm. […] The stock solutions were prepared in dimethyl sulfoxide (DMSO, Sigma-Aldrich, St. Louis, MO, cat. D2650) at 800-fold the tested concentration and stored at -70 degrees C prior to their use. All drugs and investigational agents were tested over a range starting from a high concentration at or near the clinical Cmax and decreasing in half-log increments. If the clinical Cmax for an agent had not been determined, the highest concentration tested was 10 microM.
The patient-derived cancer (PDC) cell lines include five colon adenocarcinomas: 186277-243-T-J2-PDC, 616215-338-R-J1-PDC, 439559-082-T-J2-PDC, 463943-066-T-J2-PDC, and 519858-162-T-J1-PDC; three pancreatic carcinomas: 323965-272-R-J2-PDC, 521955-158-R6-J3-PDC, and 521955-158-R2-J5-PDC; two uterine sarcomas: 327498-152-R-J2-PDC and 993429-296-R-J1-PDC; two rhabdomyosarcomas: 755483-174-R-J1-PDC and 772245-204-R-J1-PDC; two soft tissue sarcomas: 126254-015-R-J1-PDC and 494315-158-R-J1-PDC; two malignant fibrous histiocytomas: 317291-083-R-J1-PDC and 596521-263-R-J1-PDC; two breast carcinomas: 171881-019-R-J1-PDC and 885512-296-R-J2-PDC; and one ovarian carcinoma: 6556581-035-R-J-PDC were obtained from the NCI PDMR, (https://pdmr.cancer.gov). The established cell lines HSSY-2 synovial sarcoma (RRID:CVCL 8719), SYO-1 synovial sarcoma (RRID:CVCL_7146), MPNST malignant peripheral neural sheath tumor were obtained from the Sloan Kettering Institute. The following established cell lines were purchased from the American Type Culture Collection (ATCC, Manassas, VA), Sor the received from the NCI repository:, PANC-1 pancreatic carcinoma (CRL-1469, RRID:CVCL_0480), OVCAR-5 ovarian carcinoma (RRID:CVCL_1628), OVCAR-8 ovarian carcinoma (RRID:CVCL_1629), , MCF-7 breast carcinoma (CRL-12584, RRID:CVCL_0031), MDA-MB-231 breast carcinoma (CRL-12532, RRID:CVCL_0062), NCI-H1876 small cell lung carcinoma (CRL-5902, RRID:CVCL_1503), NCI-H510A small cell lung carcinoma (HTB-184, RRID:CVCL_1565), NCI-H1417 (CRL-5869, RRID:CVCL_1469), and NCI-H196 small cell lung carcinoma (CRL-5823, RRID:CVCL_1509). Dr. Peter Houghton (Greehey Children's Cancer Research Institute, University of Texas Health Science Center, San Antonio, TX) provided Rh-18 rhabdomyosarcoma (RRID:CVCL_1659). Pooled donor human umbilical vein endothelial cells (HUVEC, Lonza, cat. CC-2519) and human mesenchymal stem cells (hMSC, Lonza, cat. PT-2501) were purchased from Lonza (Walkersville, MD).
Cell Culture. […]
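Note: spheroids exposed to compounds for seven days.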
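Throughout, for viability, T/C: 100% = DMSO vehicle control wells.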

For `CCN1C(C(=O)NC23CCC(C(=O)O)(CC2)CC3)C(c2cccc(Cl)c2F)C2(C(=O)Nc3cc(Cl)ccc32)C12CCCCC2` (configuration not stated), the viability, T/C (compound 0.00949 µM) was 94.5% and 78.9%, the viability, T/C (compound 0.0949 µM) was 95.6% [middle of 15 runs] and the viability, T/C (compound 0.949 µM) was 71.9% [middle of 15 runs]. The viability, T/C (compound 3 µM) was 46.6% [middle of 15 runs] and the IC50 (curve of compound) was 2830 nM and > 3000 nM.
In the case of `CCN1CCN(Cc2ccc(Nc3ncc(F)c(-c4cc(F)c5nc(C)n(C(C)C)c5c4)n3)nc2)CC1` + CNC(C)C(=O)NC1CN(S(=O)(=O)c2cccc(S(=O)(=O)N3CCC4CCC(C(=O)NC(c5ccccc5)c5ccccc5)N4C(=O)C(NC(=O)C(C)NC)C3)c2)CCC2CCC(C(=O)NC(c3ccccc3)c3ccccc3)N2C1=O, the IC50 (curve of first compound, second compound 0.01 µM) is reported as 207 nM, the IC50 (curve of first compound, second compound 0.0316 µM) is reported as > 1000 nM and the IC50 (curve of first compound, second compound 0.1 µM) is reported as 742 nM. For the same compound, the IC50 (curve of first compound, second compound 0.316 µM) was > 1000 nM, the IC50 (curve of first compound, second compound 1 µM) was > 1000 nM and the viability, T/C (second compound 0.01 µM, first compound 0.00316 µM) was 79.9%. It also gave a viability, T/C (second compound 0.01 µM, first compound 0.01 µM) of 104%, a viability, T/C (second compound 0.01 µM, first compound 0.0316 µM) of 82.6% and a viability, T/C (second compound 0.01 µM, first compound 0.1 µM) of 56.7%. The viability, T/C (second compound 0.01 µM, first compound 0.316 µM) was 49.2%, the viability, T/C (second compound 0.01 µM, first compound 1 µM) was 26% and the viability, T/C (second compound 0.0316 µM, first compound 0.00316 µM) was 102%. For the same compound, the viability, T/C (second compound 0.0316 µM, first compound 0.01 µM) was 106%, the viability, T/C (second compound 0.0316 µM, first compound 0.0316 µM) was 104% and the viability, T/C (second compound 0.0316 µM, first compound 0.1 µM) was 82.6%. The viability, T/C (second compound 0.0316 µM, first compound 0.316 µM) was 71.6%, the viability, T/C (second compound 0.0316 µM, first compound 1 µM) was 49.9% and the viability, T/C (second compound 0.1 µM, first compound 0.00316 µM) was 115%. It also gave a viability, T/C (second compound 0.1 µM, first compound 0.01 µM) of 107%, a viability, T/C (second compound 0.1 µM, first compound 0.0316 µM) of 116% and a viability, T/C (second compound 0.1 µM, first compound 0.1 µM) of 91.4%. For the same compound, the viability, T/C (second compound 0.1 µM, first compound 0.316 µM) was 71.3%, the viability, T/C (second compound 0.1 µM, first compound 1 µM) was 42.7% and the viability, T/C (second compound 0.316 µM, first compound 0.00316 µM) was 110%. The viability, T/C (second compound 0.316 µM, first compound 0.01 µM) was 112%, the viability, T/C (second compound 0.316 µM, first compound 0.0316 µM) was 103% and the viability, T/C (second compound 0.316 µM, first compound 0.1 µM) was 90.8%. The viability, T/C (second compound 0.316 µM, first compound 0.316 µM) was 64.6%, the viability, T/C (second compound 0.316 µM, first compound 1 µM) was 50.3% and the viability, T/C (second compound 1 µM, first compound 0.00316 µM) was 112%. The viability, T/C (second compound 1 µM, first compound 0.01 µM) was 112%, the viability, T/C (second compound 1 µM, first compound 0.0316 µM) was 111% and the viability, T/C (second compound 1 µM, first compound 0.1 µM) was 87.5%. It also gave a viability, T/C (second compound 1 µM, first compound 0.316 µM) of 87.6% and a viability, T/C (second compound 1 µM, first compound 1 µM) of 68.3%.
`CNC(C)C(=O)NC1CN(S(=O)(=O)c2cccc(S(=O)(=O)N3CCC4CCC(C(=O)NC(c5ccccc5)c5ccccc5)N4C(=O)C(NC(=O)C(C)NC)C3)c2)CCC2CCC(C(=O)NC(c3ccccc3)c3ccccc3)N2C1=O` (configuration not stated) + CCN1C(C(=O)NC23CCC(C(=O)O)(CC2)CC3)C(c2cccc(Cl)c2F)C2(C(=O)Nc3cc(Cl)ccc32)C12CCCCC2 was tested, and the IC50 (curve of first compound, second compound 0.03 µM) was > 1000 nM, the IC50 (curve of first compound, second compound 0.0949 µM) was > 1000 nM and the IC50 (curve of first compound, second compound 0.3 µM) was > 1000 nM. The IC50 (curve of first compound, second compound 0.949 µM) was > 1000 nM, the IC50 (curve of first compound, second compound 3 µM) was < 3.16 nM and the viability, T/C (second compound 0.03 µM, first compound 0.00316 µM) was 92.3%. The viability, T/C (second compound 0.03 µM, first compound 0.01 µM) was 90.4%, the viability, T/C (second compound 0.03 µM, first compound 0.0316 µM) was 99.8% and the viability, T/C (second compound 0.03 µM, first compound 0.1 µM) was 94.2%. The viability, T/C (second compound 0.03 µM, first compound 0.316 µM) was 126%, the viability, T/C (second compound 0.03 µM, first compound 1 µM) was 109% and the viability, T/C (second compound 0.0949 µM, first compound 0.00316 µM) was 77.6%. The viability, T/C (second compound 0.0949 µM, first compound 0.01 µM) was 110%, the viability, T/C (second compound 0.0949 µM, first compound 0.0316 µM) was 90.3% and the viability, T/C (second compound 0.0949 µM, first compound 0.1 µM) was 112%. For the same compound, the viability, T/C (second compound 0.0949 µM, first compound 0.316 µM) was 120%, the viability, T/C (second compound 0.0949 µM, first compound 1 µM) was 115% and the viability, T/C (second compound 0.3 µM, first compound 0.00316 µM) was 84.3%. For the same compound, the viability, T/C (second compound 0.3 µM, first compound 0.01 µM) was 88.7%, the viability, T/C (second compound 0.3 µM, first compound 0.0316 µM) was 91.6% and the viability, T/C (second compound 0.3 µM, first compound 0.1 µM) was 93%. The viability, T/C (second compound 0.3 µM, first compound 0.316 µM) was 103%, the viability, T/C (second compound 0.3 µM, first compound 1 µM) was 112% and the viability, T/C (second compound 0.949 µM, first compound 0.00316 µM) was 75.3%. It also gave a viability, T/C (second compound 0.949 µM, first compound 0.01 µM) of 72.8%, a viability, T/C (second compound 0.949 µM, first compound 0.0316 µM) of 76.6% and a viability, T/C (second compound 0.949 µM, first compound 0.1 µM) of 87.6%. For the same compound, the viability, T/C (second compound 0.949 µM, first compound 0.316 µM) was 91.9%, the viability, T/C (second compound 0.949 µM, first compound 1 µM) was 86.6% and the viability, T/C (second compound 3 µM, first compound 0.00316 µM) was 41.4%. For the same compound, the viability, T/C (second compound 3 µM, first compound 0.01 µM) was 37.4%, the viability, T/C (second compound 3 µM, first compound 0.0316 µM) was 49% and the viability, T/C (second compound 3 µM, first compound 0.1 µM) was 59.5%. The viability, T/C (second compound 3 µM, first compound 0.316 µM) was 59% and the viability, T/C (second compound 3 µM, first compound 1 µM) was 62.6%.
In the case of `CCN1CCN(Cc2ccc(Nc3ncc(F)c(-c4cc(F)c5nc(C)n(C(C)C)c5c4)n3)nc2)CC1`, the viability, T/C (compound 0.00316 µM) is reported as 89.4% and 83.8% and 88.3%, the viability, T/C (compound 0.01 µM) is reported as 107% and 91.6% and 85.9% and the viability, T/C (compound 0.0316 µM) is reported as 92.8% and 77.8% and 104%. For the same compound, the viability, T/C (compound 0.1 µM) was 80.7% and 77.2% and 93%, the viability, T/C (compound 0.316 µM) was 79.6% and 71.2% and 79.3% and the viability, T/C (compound 1 µM) was 61.1% and 65% and 73.3%. For the same compound, the IC50 (curve of compound) was > 1000 nM.
